For series [1], the target named is His-TPX2 346-747 (Homo sapiens (Human), UniProt Q9ULW0). As to the kind of experiment: NMR (STD-NMR / WaterLOGSY) versus His-TPX2. Format: binding. The settings on record: 1:150 His-TPX2 346-747. An excerpt:
(§1) WaterLOGSY NMR Spectra of Compounds A1 and B2 are provided.
(§2) The 166 compound hit samples were further characterized for KIF15 or TPX2 binding using biophysical saturation transfer difference nuclear magnetic resonance (STD-NMR) and WaterLOGSY assays. The 166 compound samples were screened by STD-NMR for evidence of binding to GST-KIF15 or His-TPX2. In our assessment, no hits bound to His-TPX2. The protocol counter-screened potential hits against a His-GST peptide^99 and for aggregation using protein-free controls. Ultimately, three compound hits representing two compound chemotypes were validated to bind KIF15 by WaterLOGSY (FIGS. 4A-4B).

Series [2] concerns EOC cell lines (A2780, OVCAR5, and SKOV3). Briefly: Synergy with ispinesib in cell viability (Bliss score). The class given is cell-based. The settings on record: combination with ispinesib. From the text: The protocol tested all 166 samples of compound hits for complete screening for synergism in KIF11-inhibited cells EOC cell lines (A2780, OVCAR5, and SKOV3) (FIGS. 5A-5C).
Bliss score analyzes the statistical independence of the two treatments. A positive score indicates synergism, a negative score indicates antagonism and a score of zero indicates a purely additive effect of the combination therapy.

Series [3] addresses KIF15/TPX2 protein-protein interaction (GST-KIF15 amino acids 1149-1388, His-TPX2 amino acids 346-747) (Homo sapiens (Human), UniProt Q9NS87). As to the kind of experiment: KIF15/TPX2 AlphaScreen assay. The class given is binding. As for the experimental part: The protocol designed peptides corresponding to the appropriate domains of KIF15 (amino acids 1149-1388, GST-tagged) and TPX2 (amino acids 346-747, His-tagged), for use in the AlphaScreen assay.
Next, the protocol screened a total of 191,852 compounds from the KU-HTS library. Analysis identified 584 hits that inhibited the primary AlphaScreen TPX2-KIF15 interaction to greater than three standard deviations plus the plate inhibition-median. The 584 hits were tested for assay interference in the AlphaScreen counter-screen using His-GST fusion protein. […] Of the 467 hits, 399 inhibited the TPX2-KIF15 interaction in a dose-response manner. Refinement was conducted until identifying the compounds provided herein.
To identify compounds that inhibit KIF15-mediated bipolar spindle formation, a process that is dependent on KIF15 binding to TPX2, the protocol designed a high-throughput screen using AlphaScreen Technology. Previous studies predicted that KIF15-TPX2 binding is mediated through a C-terminal coiled-coil domain on KIF15 (amino acids 1149-1388; amino acids 1359-1380) that binds the C-terminal region of TPX2 (amino acids 475-715; amino acids 680-747)^50, 52, 57, 58. Based on these observations, the protocol designed peptides corresponding to the appropriate domains of TPX2 (amino acids 346-747, His-tagged), and KIF15 (amino acids 1149-1388, GST-tagged) for use in the AlphaScreen assay.
Next, the protocol screened a total of 191,852 compounds from the KU-HTS small-molecule compound collection. The protocol identified 584 hits that inhibited the primary AlphaScreen TPX2-KIF15 interaction to greater than three standard deviations plus the plate inhibition-median. The 584 hits were tested for assay interference in the AlphaScreen assay counter-screen using His-GST fusion protein eliminating 117 compounds^99. […] Of the 467 hits, 399 inhibited the KIF15-TPX2 interaction in a concentration-dependent manner (FIGS. 3A-3D), rendering them candidates for follow-on validation in orthogonal and counter-screen assays. Informed by computational and medicinal chemistry assessment^100, the protocol selected a representative subset of approximately 200 of the 399 compound hits for additional characterization. Samples for 177 compounds from the subset of approximately 200 representative compounds were available for purchase. Samples of these 177 compounds were purchased for structure verification by NMR and further characterization. There was enough compound sample procured to complete follow-on screening for 166 of the 177 compounds.

Series [4] addresses KIF15-HiBiT (Homo sapiens (Human), UniProt Q9NS87). Briefly: Cellular thermal shift assay (CETSA), HiBiT split luciferase. Format: cell-based. As to conditions: 100 μM. As to the method: To verify that the three putative binders of KIF15 identified by NMR spectroscopy against KIF15 fragments, a cellular thermal shift assay was performed. All three compounds at 100 μM stabilized KIF15 when thermally challenged to a greater extent than the TPX2 mimetic peptide used as a positive control (Δ5.7° C. for compound A1, Δ5.3° C. for compound A2, and Δ9.6° C. for compound B1, Δ2.1° C. for TPX2 mimetic peptide).
The HiBiT Split Luciferase based protein detection method utilized for screening of candidate compounds for physical binding to KIF15. […] The increase in stability of the protein indicates ligand engagement by stabilizing the protein in a natured conformation.
These three compound hits, referred to as Compounds A1, A2 and B1 (FIG. 3A) were screened for target engagement in CETSA. In short, a split luciferase tag known as HiBiT (Promega, Madison, WI) was fused to the KIF15 protein in a transient expression vector. Soluble protein can be easily quantified by adding the LgBiT subunit of nano luciferase. A stabilizing shift in the melting temperature of the protein indicates the protein is being stabilized by the engaged small molecule indicating direct binding of the small molecule to its target.

Series [5] deals with GST-KIF15 1149-1388 (Homo sapiens (Human), UniProt Q9NS87). Briefly: NMR (STD-NMR / WaterLOGSY) versus GST-KIF15. The class given is binding. As to conditions: for WaterLOGSY binding to GST-KIF15: 1:150 GST-KIF15 1149-1388. As to the method: as §1
Sequence of GST-KIF15 1149-1388 (Q9NS87 1149-1388): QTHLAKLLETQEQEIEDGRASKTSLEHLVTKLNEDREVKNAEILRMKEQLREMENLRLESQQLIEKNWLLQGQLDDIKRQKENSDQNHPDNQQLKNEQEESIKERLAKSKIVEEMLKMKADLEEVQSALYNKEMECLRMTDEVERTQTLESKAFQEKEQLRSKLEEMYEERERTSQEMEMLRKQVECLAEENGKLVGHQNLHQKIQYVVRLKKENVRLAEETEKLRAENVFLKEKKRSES
Various cocktails of compounds were prepared to test for interactions. 100 μL DMSO-d6 was added to 3 mg of material. 26 cocktails of 6 compounds were prepared and 3 cocktails of 7 compounds were prepared. Then, 3 μM protein is added to 300 μM of the cocktails in 10% D2O buffer. Concentration of compounds is 10 mM each.
as §2

Series [6] in a line: TruHits counter-screen.
Series [7] concerns the target KIF15 (Homo sapiens (Human), UniProt Q9NS87). As to conditions: read-out: median inhibitory concentration; cited from earlier work.
The target of series [8] is KIF11 (Homo sapiens (Human), UniProt P52732). As to conditions: b18, cited from earlier work.
Sequence of KIF11 (P52732 whole entry): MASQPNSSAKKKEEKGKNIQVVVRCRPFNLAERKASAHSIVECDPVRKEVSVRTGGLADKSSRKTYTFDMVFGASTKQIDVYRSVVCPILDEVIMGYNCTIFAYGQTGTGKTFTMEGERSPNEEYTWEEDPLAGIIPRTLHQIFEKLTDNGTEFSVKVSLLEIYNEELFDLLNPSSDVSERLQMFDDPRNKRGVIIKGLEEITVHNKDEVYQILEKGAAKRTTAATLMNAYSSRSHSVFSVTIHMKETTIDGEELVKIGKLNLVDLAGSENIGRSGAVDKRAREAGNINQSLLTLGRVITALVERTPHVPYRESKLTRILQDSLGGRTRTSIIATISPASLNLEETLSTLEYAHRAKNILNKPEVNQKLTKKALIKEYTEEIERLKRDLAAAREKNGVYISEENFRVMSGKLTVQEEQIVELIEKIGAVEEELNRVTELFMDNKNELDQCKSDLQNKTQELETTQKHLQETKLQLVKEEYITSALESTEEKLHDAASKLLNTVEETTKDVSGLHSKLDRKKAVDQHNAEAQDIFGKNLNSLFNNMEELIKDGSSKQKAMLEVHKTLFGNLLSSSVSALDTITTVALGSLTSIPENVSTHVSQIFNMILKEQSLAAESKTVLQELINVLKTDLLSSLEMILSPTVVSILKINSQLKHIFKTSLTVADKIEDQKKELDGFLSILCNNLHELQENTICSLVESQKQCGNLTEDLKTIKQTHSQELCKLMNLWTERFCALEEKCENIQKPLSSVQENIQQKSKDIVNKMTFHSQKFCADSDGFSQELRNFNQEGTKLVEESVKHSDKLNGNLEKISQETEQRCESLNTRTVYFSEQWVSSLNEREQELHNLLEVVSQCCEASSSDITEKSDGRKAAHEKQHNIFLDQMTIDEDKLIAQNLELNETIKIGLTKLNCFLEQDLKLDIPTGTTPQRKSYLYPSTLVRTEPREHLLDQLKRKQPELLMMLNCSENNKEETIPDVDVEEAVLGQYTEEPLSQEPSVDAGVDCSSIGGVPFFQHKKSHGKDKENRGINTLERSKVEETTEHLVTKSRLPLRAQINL
The subject of series [9] is HIO-80, HIO-118, FT190, FT194. As to the kind of experiment: CellTiter Glo cell viability, immortalized non-tumorigenic cell lines. The settings on record: control cell lines, 72 hours. The class given is cell-based.
Series [10] relates to ovarian cancer cell lines. The settings on record: 72 h.
In series [11] the test system is ovarian cancer cell lines. Briefly: cells. As to conditions: 72 h, read-out: IC50 cell viability.

Sequence of KIF15/TPX2 protein-protein interaction (GST-KIF15 amino acids 1149-1388, His-TPX2 amino acids 346-747) (Q9NS87 1149-1388): as the sequence (Q9NS87 1149-1388) above
Sequence of KIF15-HiBiT (Q9NS87 whole entry, the tested form may be a part): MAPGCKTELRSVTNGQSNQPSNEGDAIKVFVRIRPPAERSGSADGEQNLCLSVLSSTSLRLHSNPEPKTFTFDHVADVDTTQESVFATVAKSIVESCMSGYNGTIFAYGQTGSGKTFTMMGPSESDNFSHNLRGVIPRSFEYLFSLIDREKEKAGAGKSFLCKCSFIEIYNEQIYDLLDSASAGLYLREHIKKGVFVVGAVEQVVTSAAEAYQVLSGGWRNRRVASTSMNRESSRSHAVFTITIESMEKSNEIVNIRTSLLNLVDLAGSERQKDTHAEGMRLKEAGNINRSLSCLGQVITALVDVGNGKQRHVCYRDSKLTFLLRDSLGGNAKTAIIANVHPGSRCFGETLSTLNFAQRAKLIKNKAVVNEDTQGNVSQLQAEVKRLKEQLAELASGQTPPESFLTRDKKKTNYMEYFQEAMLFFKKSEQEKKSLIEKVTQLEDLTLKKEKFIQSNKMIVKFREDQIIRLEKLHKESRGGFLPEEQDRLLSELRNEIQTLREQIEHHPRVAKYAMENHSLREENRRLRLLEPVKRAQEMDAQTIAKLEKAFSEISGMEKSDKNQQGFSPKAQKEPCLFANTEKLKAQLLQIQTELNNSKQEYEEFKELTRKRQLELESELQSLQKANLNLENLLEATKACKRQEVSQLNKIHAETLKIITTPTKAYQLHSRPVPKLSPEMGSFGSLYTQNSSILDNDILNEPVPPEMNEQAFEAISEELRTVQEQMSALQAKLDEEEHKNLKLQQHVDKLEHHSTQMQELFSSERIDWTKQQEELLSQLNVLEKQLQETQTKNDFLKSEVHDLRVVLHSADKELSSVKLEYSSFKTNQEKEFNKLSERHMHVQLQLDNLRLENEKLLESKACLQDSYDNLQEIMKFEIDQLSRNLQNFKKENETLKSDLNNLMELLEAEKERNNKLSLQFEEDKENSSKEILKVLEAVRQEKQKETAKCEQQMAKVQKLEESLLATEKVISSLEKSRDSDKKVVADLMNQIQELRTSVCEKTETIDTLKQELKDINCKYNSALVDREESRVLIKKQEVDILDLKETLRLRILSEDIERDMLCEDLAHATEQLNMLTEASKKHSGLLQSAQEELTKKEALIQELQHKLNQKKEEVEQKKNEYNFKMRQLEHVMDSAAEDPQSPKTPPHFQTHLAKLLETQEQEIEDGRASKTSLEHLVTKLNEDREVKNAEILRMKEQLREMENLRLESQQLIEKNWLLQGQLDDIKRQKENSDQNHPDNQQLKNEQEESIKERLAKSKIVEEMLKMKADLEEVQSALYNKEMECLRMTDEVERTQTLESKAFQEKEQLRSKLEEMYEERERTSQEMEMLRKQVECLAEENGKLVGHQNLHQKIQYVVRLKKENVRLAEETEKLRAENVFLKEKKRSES
Sequence of His-TPX2 346-747 (Q9ULW0 346-747): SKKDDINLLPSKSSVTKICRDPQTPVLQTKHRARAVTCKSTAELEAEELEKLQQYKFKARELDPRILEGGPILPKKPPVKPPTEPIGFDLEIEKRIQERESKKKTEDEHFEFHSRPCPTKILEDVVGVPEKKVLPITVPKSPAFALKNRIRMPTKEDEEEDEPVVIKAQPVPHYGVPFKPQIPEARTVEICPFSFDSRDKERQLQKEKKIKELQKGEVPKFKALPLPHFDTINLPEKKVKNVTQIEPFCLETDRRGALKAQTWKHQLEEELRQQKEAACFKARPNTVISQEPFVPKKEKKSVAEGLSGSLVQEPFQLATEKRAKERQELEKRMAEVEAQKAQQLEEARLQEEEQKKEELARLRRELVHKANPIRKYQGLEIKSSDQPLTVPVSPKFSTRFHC
Sequence of KIF15 (Q9NS87 whole entry): as the sequence (Q9NS87 whole entry, the tested form may be a part) above

Consider `CCN1CCN(c2ncc3c(n2)CCN(Cc2ccccc2Cl)C3)CC1` [Compound 10, 6-(2-chlorobenzyl)-2-(4-ethylpiperazin-1-yl)-5,6,7,8-tetrahydropyrido[4,3-d]pyrimidine], for which the “WaterLOGSY / STD-NMR binding to His-TPX2” value in series [1] is on record as “not observed”. The “synergy with ispinesib in inhibition of growth” value in series [2] was “Synergy”. The IC50 is 1500 ± 10 nM in [3] and 86000 ± 16000 nM in series [6]. In addition, the “shift in thermostability of KIF15” value in series [4] was “significant shift in thermostability”. In addition, the “WaterLOGSY binding to GST-KIF15” value in series [5] is “indicates binding”. Moreover, the “NMR Versus GST-KIF15” value in series [5] (Hit / No) is listed as “Hit”.

Consider `C=CCn1c(C(=O)NCc2ccccn2)cc2sc(C)cc21` [Compound 14, 4-allyl-2-methyl-N-(pyridin-2-ylmethyl)-4H-thieno[3,2-b]pyrrole-5-carboxamide], for which the “WaterLOGSY / STD-NMR binding to His-TPX2” value in series [1] is listed as “not observed”. For the same molecule, the “synergy with ispinesib in inhibition of growth” value in series [2] is “Synergy”. In addition, the IC50 in series [3] was determined as 5600 ± 300 nM; in [6], 87000 ± 2000 nM. Besides, the “shift in thermostability of KIF15” value in series [4] is listed as “significant shift in thermostability”. The “WaterLOGSY binding to GST-KIF15” value in series [5] is “indicates binding”.

With `O=C1Nc2ccc(C(=O)c3ccco3)cc2/C1=C/c1cc(Cl)c(O)c(Cl)c1` [GW108X], the IC50 in series [7] was 800 nM.

Consider `CON(C)C(=O)N1N=C(c2cc(F)ccc2F)S[C@@]1(CCCN)c1ccccc1` [filanesib], for which the Ki in series [8] (read-out: K values) is 6 nM.

Take `Cc1ccc(C(=O)N(CCCN)[C@@H](c2nc3cc(Cl)ccc3c(=O)n2Cc2ccccc2)C(C)C)cc1` [ispinesib]: the IC50 was in the range of 7.04 to 23.4 nM in series [9] and 1.07 to 15.8 nM in [11]. The loss of viability result in [10] is on record as “greater than 50%”.

For the molecule `CCOC(=O)C1=C(C)NC(=S)NC1c1cccc(O)c1` (stereo not shown) [monastrol], the “inhibit motor ATP hydrolysis” value in series [8] was 4.9 µM.
